In the NIST ThermoML archive (doi:10.1016/j.jct.2019.02.028):
Where “and” joins values, the source holds several entries; their conditions need not be identical. Equal values may be shown once. Numbers after ± are expanded uncertainties.

Assay: xn = mol fraction of the nth substance listed
Conditions: Gas, Burnett expansion method

C=C(F)C(F)(F)F [2,3,3,3-tetrafluoro-1-propene] + FCF
Conditions | mass density
383 K, 2705.6 kPa, x2 = 0.449 | 91.15 ± 0.92 kg/m3
383 K, 2835.7 kPa, x2 = 0.874 | 63.53 ± 0.72 kg/m3
383 K, 3918.9 kPa, x2 = 0.874 | 95.42 ± 1.1 kg/m3
383 K, 4682.2 kPa, x2 = 0.449 | 205.63 ± 2.3 kg/m3
383 K, 5686.5 kPa, x2 = 0.449 | 308.85 ± 3.3 kg/m3
383.01 K, 928.35 kPa, x2 = 0.449 | 26.9 ± 0.23 kg/m3
383.01 K, 1476 kPa, x2 = 0.698 | 35.93 ± 0.32 kg/m3
383.01 K, 2118 kPa, x2 = 0.698 | 53.97 ± 0.49 kg/m3
383.01 K, 2705.6 kPa, x2 = 0.449 | 91.15 ± 0.92 kg/m3
383.01 K, 2972.2 kPa, x2 = 0.698 | 81.06 ± 0.77 kg/m3
383.01 K, 3646.5 kPa, x2 = 0.449 | 136.9 ± 1.5 kg/m3
383.01 K, 4036.2 kPa, x2 = 0.698 | 121.75 ± 1.5 kg/m3
383.01 K, 4682.4 kPa, x2 = 0.449 | 205.63 ± 2.3 kg/m3
383.01 K, 5245.7 kPa, x2 = 0.698 | 182.87 ± 2.2 kg/m3
383.02 K, 928.34 kPa, x2 = 0.449 | 26.9 ± 0.23 kg/m3
383.02 K, 1012.8 kPa, x2 = 0.698 | 23.92 ± 0.21 kg/m3
383.02 K, 1381.5 kPa, x2 = 0.874 | 28.16 ± 0.32 kg/m3
383.02 K, 1914.9 kPa, x2 = 0.259 | 70.04 ± 0.65 kg/m3
383.02 K, 1937.6 kPa, x2 = 0.449 | 60.69 ± 0.56 kg/m3
383.02 K, 1937.7 kPa, x2 = 0.449 | 60.69 ± 0.56 kg/m3
383.02 K, 2238 kPa, x2 = 0.119 | 94.52 ± 0.66 kg/m3
383.02 K, 2635.6 kPa, x2 = 0.259 | 105.19 ± 1.1 kg/m3
383.02 K, 2635.8 kPa, x2 = 0.259 | 105.19 ± 1.1 kg/m3
383.02 K, 2972.4 kPa, x2 = 0.698 | 81.06 ± 0.77 kg/m3
383.02 K, 3646.6 kPa, x2 = 0.449 | 136.9 ± 1.5 kg/m3
383.02 K, 3919.7 kPa, x2 = 0.874 | 95.42 ± 1.1 kg/m3
383.02 K, 4035.8 kPa, x2 = 0.698 | 121.75 ± 1.5 kg/m3
383.02 K, 4396.6 kPa, x2 = 0.259 | 237.32 ± 2.4 kg/m3
383.02 K, 5211.2 kPa, x2 = 0.259 | 356.45 ± 6.4 kg/m3 and 356.44 ± 6.4 kg/m3
383.02 K, 5215.7 kPa, x2 = 0.874 | 143.31 ± 2.2 kg/m3
383.02 K, 5215.8 kPa, x2 = 0.874 | 143.31 ± 2.2 kg/m3
383.02 K, 5245.8 kPa, x2 = 0.698 | 182.87 ± 2.2 kg/m3
383.03 K, 934.81 kPa, x2 = 0.259 | 31.04 ± 0.22 kg/m3
383.03 K, 1350.5 kPa, x2 = 0.449 | 40.4 ± 0.35 kg/m3
383.03 K, 1351.5 kPa, x2 = 0.259 | 46.63 ± 0.34 kg/m3
383.03 K, 1381.4 kPa, x2 = 0.874 | 28.16 ± 0.32 kg/m3
383.03 K, 1611.8 kPa, x2 = 0.119 | 62.93 ± 0.39 kg/m3
383.03 K, 1611.9 kPa, x2 = 0.119 | 62.93 ± 0.39 kg/m3
383.03 K, 1915 kPa, x2 = 0.259 | 70.04 ± 0.65 kg/m3
383.03 K, 1998.1 kPa, x2 = 0.874 | 42.29 ± 0.48 kg/m3
383.03 K, 2238.3 kPa, x2 = 0.119 | 94.52 ± 0.66 kg/m3
383.03 K, 2836.1 kPa, x2 = 0.874 | 63.53 ± 0.72 kg/m3
383.03 K, 2989.1 kPa, x2 = 0.119 | 141.97 ± 1.2 kg/m3
383.03 K, 3496.5 kPa, x2 = 0.259 | 158 ± 2.1 kg/m3
383.03 K, 3777.6 kPa, x2 = 0.119 | 213.24 ± 2.7 kg/m3
383.03 K, 4397.4 kPa, x2 = 0.259 | 237.31 ± 2.4 kg/m3
383.03 K, 4464.7 kPa, x2 = 0.119 | 320.28 ± 5.2 kg/m3
383.03 K, 4465 kPa, x2 = 0.119 | 320.28 ± 5.2 kg/m3
383.04 K, 638.24 kPa, x2 = 0.259 | 20.67 ± 0.16 kg/m3
383.04 K, 642.12 kPa, x2 = 0.874 | 12.48 ± 0.15 kg/m3
383.04 K, 688.17 kPa, x2 = 0.698 | 15.93 ± 0.14 kg/m3
383.04 K, 778.8 kPa, x2 = 0.119 | 27.9 ± 0.14 kg/m3
383.04 K, 943.49 kPa, x2 = 0.874 | 18.75 ± 0.21 kg/m3
383.04 K, 1130.2 kPa, x2 = 0.119 | 41.9 ± 0.25 kg/m3
383.04 K, 1998.1 kPa, x2 = 0.874 | 42.29 ± 0.48 kg/m3
383.04 K, 2989.2 kPa, x2 = 0.119 | 141.97 ± 1.2 kg/m3
383.04 K, 3777.7 kPa, x2 = 0.119 | 213.24 ± 2.7 kg/m3
383.05 K, 943.52 kPa, x2 = 0.874 | 18.75 ± 0.21 kg/m3
383.05 K, 3496.8 kPa, x2 = 0.259 | 158 ± 2.1 kg/m3
383.06 K, 935.34 kPa, x2 = 0.259 | 31.04 ± 0.22 kg/m3
383.06 K, 1130.4 kPa, x2 = 0.119 | 41.9 ± 0.25 kg/m3
